# Experimental data reported in patent US20070172453A1, “Tolerogenic approach for type 1 diabetes” (priority 2002, published 2007).
# Assays:
# [1] = system: peripheral blood mononuclear cells (PBMCs); test: ELISPOT of IFN-γ and IL-10 secreting cells in PBMCs of DQ8+ type 1 diabetic adolescents; format: cell-based, human; conditions: for number of IFN-γ secreting cells / number of IL-10 secreting cells / ratio of IL-10/IFN-γ: peptide 50 μM, DQ8+ type 1 diabetic adolescents; for number of IFN-γ secreting cells / number of IL-10 secreting cells: 48 hours, 1×10^5 PBMCs/well, ±SEM
# Description: Ten diabetic patients were selected (6 females, 4 males; age range: 7-16 years of age) which were positive for the DQ8 allele. With the assistance of endocrine pediatricians, appropriate arrangements were made for two sampling sessions. Written and informed consent was obtained from the parents of the adolescents. For each patient, 20 ml of blood was collected in tubes containing EDTA. These tubes were immediately sent to Cypro SA (Brussels) where peripheral blood mononuclear cells (PBMCs) were isolated using the Lymphoprep™ (Invitrogen) isolation technique.
# ELISPOT Assays (Cypro): The general methodology has been described by Tary-Lehmann et al. (see, e.g., Tary-Lahmann et al. (1998) Transplantation 66:219-224). Briefly, PBMCs were seeded at a concentration of 1×10^5/well in 96-well plates coated with anti-human IFN-γ monoclonal antibody (mAb) (Serpime/Nodia) or anti-IL-10 mAb (BD-Pharmingen) in the presence or absence of either PHA (Sigma, 1 μg/ml)+LPS (Sigma, 1 μg/ml), Purified Protein Derivative (PPD, 5 μg/ml), Insulin B9-23 (SEQ ID NO:3 ) (10 and 50 μM), IGF-2 B11-25 (SEQ ID NO:2 )(10 and 50 μM After 48 hours of incubation at 37° C., 5% CO2 on a plane surface, wells were washed three times with PBS Tween 0.25%, then blot dried.
# After 1 hour-incubation in a humid room at ambient temperature, the plates were washed and the substrate AEC (3-amino-9-ethylcarazole)+30% H2O2 were added. After 15 minutes (for IFN-γ) or 30 minutes (for IL-10) of incubation at ambient temperature, spots appeared and the reaction was stopped by washing the plates under water. After drying, the spots were counted by image analyzer assisted by computer with filters specific for each cytokine.
# A Wilcoxon test was used for statistical analyses (non-parametric paired values).
# [2] = system: peripheral blood mononuclear cells (PBMCs); test: ELISpot of IL-10 secreting cells in PBMCs from healthy controls and adult Type 1 diabetics; format: cell-based, human; conditions: 50 μM, 48h
# Description: In comparison to the Insulin B9-23 peptide (SEQ ID NO:3), the presentation of IGF-2 B11-25 (SEQ ID NO:2) increases the number of IL-10 secreting cells in peripheral blood mononuclear cells (PBMCs) from adult Type I diabetics. PBMCs were isolated by a conventional method from the blood of 6 healthy controls and 18 adult Type 1 diabetic patients. The PBMCs were cultured for 48h in 96-well dishes in the presence of IGF-2 B11-25 (SEQ ID NO:2)(50 μM) or […] (50 μM).
# The data are presented in FIG. 4 as the number of spots per 10^5 cells. Statistical analyses were performed using Wilcoxon's test.
# PBMCs [3] = test: IL-10 concentration in PBMC culture supernatants by ELISA; format: cell-based, human; conditions: 20h-culture
# Description: PBMCs were isolated from the blood of 10 healthy controls and 13 adult type 1 diabetics. After a 20h-culture, IL-10 concentration in the supernatants was measured using a specific ELISA (BioSource, Nivelles, Belgium).
# PBMCs [4] = test: IL10 transcription in PBMCs by TaqMan real-time PCR; format: cell-based, human; conditions: 50 μM, 20 hours
# Description: Total RNA was extracted with the RNeasy Mini Kit (Qiagen, Calif., USA) from PBMCs isolated from 10 healthy controls and from 11 Type 1 diabetics, and cultured for 20 hours with IGF-2 B11-25 (SEQ ID NO:2)(50 μM) or Insulin B9-23 (SEQ ID NO:3 ) (50 μM). Total RNA was measured with a Nanodrop (NanoDrop Technologies, Wilmington, USA). Reverse transcription was performed with Transcriptor First Strand cDNA Synthesis Kit (Roche, Germany). PCR was performed with the following probes:
# IL10 transcripts were then quantified using a TaqMan procedure. Standard curves were established from a lot of plasmid containing IL10 according to the procedure described by other authors (Giulietti et al., Methods 25: 386, 2001). […] A strong positive relationship was evidenced between IL-10 concentrations as measured by ELISA and the number of IL10 transcripts as quantified by real-time PCR (R^2=0.62, P<0.0001; Spearman's test). Conclusions
# [5] = system: spleen cells from Igf2-/- and wt mice; test: IL-2 production by IGF-2-specific T cells (spleen cells) after immunization and in vitro stimulation; format: cell-based, mouse; conditions: spleen cells in culture with murine IGF-2-derived B11-25 after two i.p. injections
# Description: (§1) Mice immunization. Igf2^−/− and wt mice were injected i.p. with 5 μg of rmIGF-2 (R&D Systems) or with 5 μg of human insulin (Roche) to study the humoral response and with 50 μg of murine IGF-2-derived B11-25 (NEOSYSTEM)(SEQ ID NO:2) to analyze the cellular response. CFA (Sigma-Aldrich) (v/v) is used for the first injection and IFA (Sigma-Aldrich) (v/v) for the other injections. For humoral response, three injections separated by 20 days were performed. Blood test was performed 15 days after each injection in agreement with the Liege University ethic committee. For cellular response, two injections separated by 15 days were performed.
# IL-2 production. After 48, 72, and 96 h of MLR or after 24 and 48 h of specific T cell culture, 800 μl were removed of each condition and IL-2 production released by Igf2^−/− and wt T cells in MLR was assessed by specific ELISA (Biosource Europe).
# Statistical analyses. The t test was used to compare Igf2^−/− and wt mice in IL-2 production and Ab production after immunization. The level of significance was p<0.05.
# Igf2-/- and wt mice [6] = test: Anti-IGF-2 humoral response after i.p. immunization of Igf2-/- and wt mice (ELISA); format: in vivo, mouse; conditions: i.p. immunization 5 μg
# Description: as §1
# (§2) Dosage of anti-IGF-2 and anti-insulin Abs. Abs against IGF-2 and insulin were detected and quantified using a specific ELISA procedure. Microplates (Nunc Maxisorp 468667; VVWR International) were incubated overnight at 4° C. with 2 μg/ml rmIGF-2 (R&D Systems) or 5 μg/ml human insulin (Roche) in 100 μl of 0.1 M NaHCO3 (pH 8.4). From this step, the procedure was identical between the two kinds of ELISA. SL buffer (0.01 M phosphate buffer, pH 7.4) was used as the basic buffer, and all reactions were incubated at 37° C. under agitation. […] The reaction was stopped with 50 μl of 0.4 N HCl, and the absorbance was measured at 450-620 nm with a spectrophotometer.
# NOD mice = conditions: cited from earlier work
# [7] = system: CD4-mediated, HLA-II restricted immune response; conditions: patients with IDDM; cited from earlier work
# Igf2-/- and wt mice [8] = test: Anti-insulin humoral response after i.p. immunization of Igf2-/- and wt mice (ELISA); format: in vivo, mouse; conditions: three i.p. injections, mice with day 0 anti-insulin Ab lower than 1 in OD
# Description: as §1
# as §2, with “spectrophotometer. […]” for “spectrophotometer.”
# [9] = cited from earlier work
substance,measurement,setting,value
GELVDTLQFVCGDRG (listed as Homo sapiens) [IGF-2 B11-25],"ratio IL-10/IFN-γ, fold higher than after insulin B9-23","[1]; 50 μM, versus insulin B9-23",~7 fold
same,number of IFN-γ secreting cells,[1],45.60±11.67
same,number of IL-10 secreting cells,[1],1162±208.6
same,ratio of IL-10/IFN-γ,[1],67.36±37.58
same,number of IL-10 secreting cells versus Insulin B9-23,[2]; PBMCs from healthy controls,no significant difference
same,number of IL-10 secreting cells versus Insulin B9-23,[2]; PBMCs of adult Type 1 diabetics,significantly higher
same,IL-10 concentration in supernatants versus basal conditions or Insulin B9-23,PBMCs [3]; PBMC cultures from Type 1 diabetics,significantly increased
same,IL-10 concentration in supernatants versus basal conditions or Insulin B9-23,PBMCs [3]; PBMC cultures from healthy controls,significantly increased
same,IL10 transcription,PBMCs [4]; PBMCs from adult Type 1 diabetics,very significantly increases
same,IL10 transcription,PBMCs [4]; PBMCs from healthy controls,very significantly increases
same,"IL-2 production, Igf2-/- compared with wt mice",[5],significant increase of IL-2 production
"IGF-2: rmIGF-2 (R&D Systems), insulin-like growth factor 2 used for mice immunization",anti-IGF-2 humoral response,Igf2-/- and wt mice [6]; Igf2-deficient mice,rapidly induced anti-IGF-2 Abs
same,"anti-IGF-2 T-dependent humoral response (IgG1, IgG2a, IgG2b)",Igf2-/- and wt mice [6]; wt mice,no T-dependent response was observed
"SHLVEALYLVCGERG (listed as Homo sapiens) [insulin B9-23, reference compound]",number of IFN-γ secreting cells,[1],88.90±23.82
same,number of IL-10 secreting cells,[1],701.8±160.9
same,ratio of IL-10/IFN-γ,[1],10.22±1.99
same,anaphylaxis,NOD mice,induces fatal anaphylaxis
same,incidence of diabetes,NOD mice,accelerates incidence of diabetes
same,IFN-γ production in response to peptide presentation,[7],high production of IFN-γ
insulin: human insulin (Roche) for mice immunization; insulin given orally or subcutaneously in cited trials,"anti-insulin Ig-specific humoral response, Igf2-/- compared with Igf2+/+ mice",Igf2-/- and wt mice [8],higher anti-insulin Ig-specific humoral response
same,protection of residual β cell function,"[9]; oral administration, recent-onset IDDM",failed to protect the residual β cell function
same,delay or prevention of onset of disease,"[9]; subcutaneous administration, high-risk relatives of patients with IDDM",did not delay or prevent the onset of disease
